Results taken from patent publication US6737383B1, “Herbicidal oxadiazolidines” (priority 1999, dated 2004).

Columns and labels:
bedstraw = assay: Test B pre/postemergence bedstraw; format: in vivo, Galium aparine; details: for Bedstraw plant response rating: Postemergence
Method in brief: (§1)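 Response is a visual 0-to-10 score relative to untreated plants, where 0 means no effect and 10 means complete control, taken twelve to sixteen days after application. Treatments went onto soil at planting and onto foliage of 1- to 4-leaf plants, using a surfactant-containing non-phytotoxic solvent.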

blackgrass = assay: Test B pre/postemergence blackgrass; format: in vivo, Alopecurus myosuroides; details: for Blackgrass plant response rating: Postemergence; for Plant response rating, Blackgrass: Preemergence
Method in brief: as §1

surinam grass = assay: Test B pre/postemergence surinam grass; format: in vivo, Brachiaria decumbens; details: for B. signalgrass plant response rating: Postemergence; for Plant response rating, B. signalgrass: Preemergence
Method in brief: as §1

cocklebur = assay: Test B pre/postemergence cocklebur; format: in vivo, Xanthium strumarium; details: for Cocklebur plant response rating: Postemergence; for Plant response rating, Cocklebur: Preemergence
Method in brief: as §1

corn = assay: Test B pre/postemergence corn; format: in vivo, Zea mays; details: for Corn plant response rating: Postemergence; for Plant response rating, Corn: Preemergence
Method in brief: as §1

crabgrass = assay: Test B pre/postemergence crabgrass; format: in vivo, Digitaria sanguinalis; details: for Crabgrass plant response rating: Postemergence; for Plant response rating, Crabgrass: Preemergence
Method in brief: as §1

giant foxtail = assay: Test B pre/postemergence giant foxtail; format: in vivo, Setaria faberii; details: for Giant foxtail plant response rating: Postemergence; for Plant response rating, Giant foxtail: Preemergence
Method in brief: as §1

morningglory = assay: Test B pre/postemergence morningglory; format: in vivo, Ipomoea hederacea; details: for Morningglory plant response rating: Postemergence; for Plant response rating, Morningglory: Preemergence
Method in brief: as §1

pigweed = assay: Test B pre/postemergence pigweed; format: in vivo, Amaranthus retroflexus; details: for Redroot pigweed plant response rating: Postemergence; for Plant response rating, Redroot pigweed: Preemergence
Method in brief: as §1

rape = assay: Test B pre/postemergence rape; format: in vivo, Brassica napus; details: for Rape plant response rating: Postemergence; for Plant response rating, Rape: Preemergence
Method in brief: as §1

soybean = assay: Test B pre/postemergence soybean; format: in vivo, Glycine max; details: for Soybean plant response rating: Postemergence; for Plant response rating, Soybean: Preemergence
Method in brief: as §1

sugar beet = assay: Test B pre/postemergence sugar beet; format: in vivo, Beta vulgaris; details: for Sugarbeets plant response rating: Postemergence; for Plant response rating, Sugarbeets: Preemergence
Method in brief: as §1

velvetleaf = assay: Test B pre/postemergence velvetleaf; format: in vivo, Abutilon theophrasti; details: for Velvetleaf plant response rating: Postemergence; for Plant response rating, Velvetleaf: Preemergence
Method in brief: as §1

wheat = assay: Test B pre/postemergence wheat; format: in vivo, Triticum aestivum; details: for Wheat plant response rating: Postemergence; for Plant response rating, Wheat: Preemergence
Method in brief: as §1

wild oat = assay: Test B pre/postemergence wild oat; format: in vivo, Avena fatua; details: for Wild oats plant response rating: Postemergence; for Plant response rating, Wild oats: Preemergence
Method in brief: as §1

purple nutsedge = assay: Test B pre/postemergence purple nutsedge; format: in vivo, Cyperus rotundus; details: for Nutsedge plant response rating: Postemergence; for Plant response rating, Nutsedge: Preemergence
Method in brief: as §1

rice = assay: Test B flood test rice; format: in vivo, Oryza sativa
Method in brief: (§2)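 Plants were grown to the 2-leaf stage before treatment with test chemical, then held in a greenhouse for twelve to sixteen days. Injury was visually rated against untreated controls on a 0–10 scale, where 0 is no effect and 10 is complete control.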

smallflower flatsedge = assay: Test B flood test smallflower flatsedge; format: in vivo, Cyperus difformis
Method in brief: as §2

duck salad = assay: Test B flood test duck salad; format: in vivo, Heteranthera limosa
Method in brief: as §2

bamyardgrass = assay: Test B flood test barnyardgrass; format: in vivo, Echinochloa crus-galli
Method in brief: as §2

[1] = Rate 125 g/ha, scale of 0 to 10 where 0 is no effect and 10 is complete control
[2] = Rate 250 g/ha, scale 0 to 10, 0 is no effect, 10 is complete control
[3] = Rate 1000 g/ha, scale 0 to 10 (0 no effect, 10 complete control)
[4] = Rate 250 g/ha, scale 0 to 10 (0 no effect, 10 complete control)
[5] = Rate 500 g/ha, scale of 0 to 10 where 0 is no effect and 10 is complete control
[6] = Rate 500 g/ha, scale 0 to 10, 0 is no effect, 10 is complete control
[7] = Pre-emergence, Rate 1000 g/ha, scale 0 to 10 (0 no effect, 10 complete control)
[8] = Rate 125 g/ha, under heading Pre-emergence, flood test species, visual evaluation after twelve to sixteen days
[9] = Rate 250 g/ha, Pre-emergence (flood test species), scale 0 to 10, 0 is no effect, 10 is complete control
[10] = Rate 500 g/ha, Pre-emergence section of Table B, 0 to 10 scale (0 no effect, 10 complete control)

## CCOC(=O)CC(C(=O)OCC)n1c(=O)on(C(=O)N(c2ccc(Cl)cc2)C(C)C)c1=O (stereo not drawn) [Compound 681]
bedstraw; [1]
  Bedstraw plant response rating: 0
bedstraw; Preemergence, Rate 125 g/ha, scale of 0 to 10 where 0 is no effect and 10 is complete control
  Plant response rating, Bedstraw: 0
bedstraw; [2]
  Bedstraw plant response rating: 0
blackgrass; [1]
  Blackgrass plant response rating: 0
  Plant response rating, Blackgrass: 0
blackgrass; [3]
  Blackgrass plant response rating: 4
  Plant response rating, Blackgrass: 6
blackgrass; [4]
  Plant response rating, Blackgrass: 1
blackgrass; [5]
  Plant response rating, Blackgrass: 3
blackgrass; [2]
  Blackgrass plant response rating: 0
blackgrass; [6]
  Blackgrass plant response rating: 0
Surinam grass; [1]
  B. signalgrass plant response rating: 0
  Plant response rating, B. signalgrass: 0
Surinam grass; [3]
  B. signalgrass plant response rating: 0
  Plant response rating, B. signalgrass: 4
Surinam grass; [4]
  Plant response rating, B. signalgrass: 0
Surinam grass; [5]
  Plant response rating, B. signalgrass: 0
Surinam grass; [2]
  B. signalgrass plant response rating: 0
Surinam grass; [6]
  B. signalgrass plant response rating: 0
cocklebur; [1]
  Cocklebur plant response rating: 0
  Plant response rating, Cocklebur: 0
cocklebur; [3]
  Cocklebur plant response rating: 0
cocklebur; [4]
  Plant response rating, Cocklebur: 0
cocklebur; [5]
  Plant response rating, Cocklebur: 0
cocklebur; [2]
  Cocklebur plant response rating: 0
cocklebur; [6]
  Cocklebur plant response rating: 0
corn; [1]
  Corn plant response rating: 0
  Plant response rating, Corn: 0
corn; [3]
  Corn plant response rating: 0
  Plant response rating, Corn: 0
corn; [4]
  Plant response rating, Corn: 0
corn; [5]
  Plant response rating, Corn: 0
corn; [2]
  Corn plant response rating: 0
corn; [6]
  Corn plant response rating: 0
crabgrass; [1]
  Crabgrass plant response rating: 0
  Plant response rating, Crabgrass: 0
crabgrass; [3]
  Crabgrass plant response rating: 2
  Plant response rating, Crabgrass: 8
crabgrass; [4]
  Plant response rating, Crabgrass: 2
crabgrass; [5]
  Plant response rating, Crabgrass: 7
crabgrass; [2]
  Crabgrass plant response rating: 0
crabgrass; [6]
  Crabgrass plant response rating: 0
Giant foxtail; [1]
  Giant foxtail plant response rating: 0
  Plant response rating, Giant foxtail: 0
Giant foxtail; [3]
  Giant foxtail plant response rating: 3
  Plant response rating, Giant foxtail: 9
Giant foxtail; [5]
  Plant response rating, Giant foxtail: 9
Giant foxtail; [2]
  Giant foxtail plant response rating: 0
Giant foxtail; [6]
  Giant foxtail plant response rating: 0
morningglory; [1]
  Morningglory plant response rating: 0
  Plant response rating, Morningglory: 0
morningglory; [5]
  Plant response rating, Morningglory: 0
morningglory; [2]
  Morningglory plant response rating: 0
morningglory; [6]
  Morningglory plant response rating: 7
morningglory; [3]
  Plant response rating, Morningglory: 0
pigweed; [1]
  Redroot pigweed plant response rating: 0
  Plant response rating, Redroot pigweed: 0
pigweed; [3]
  Redroot pigweed plant response rating: 7
  Plant response rating, Redroot pigweed: 5
pigweed; [5]
  Plant response rating, Redroot pigweed: 3
pigweed; [2]
  Redroot pigweed plant response rating: 2
pigweed; [6]
  Redroot pigweed plant response rating: 6
rape; [1]
  Rape plant response rating: 0
  Plant response rating, Rape: 0
rape; [3]
  Rape plant response rating: 0
  Plant response rating, Rape: 0
rape; [5]
  Plant response rating, Rape: 0
rape; [2]
  Rape plant response rating: 0
rape; [6]
  Rape plant response rating: 0
soybean; [1]
  Soybean plant response rating: 0
  Plant response rating, Soybean: 0
soybean; [5]
  Plant response rating, Soybean: 0
soybean; [2]
  Soybean plant response rating: 0
soybean; [6]
  Soybean plant response rating: 1
soybean; [3]
  Plant response rating, Soybean: 0
Sugar beet; [1]
  Sugarbeets plant response rating: 0
  Plant response rating, Sugarbeets: 0
Sugar beet; [5]
  Plant response rating, Sugarbeets: 0
Sugar beet; [2]
  Sugarbeets plant response rating: 0
Sugar beet; [6]
  Sugarbeets plant response rating: 0
Sugar beet; [3]
  Plant response rating, Sugarbeets: 0
velvetleaf; [1]
  Velvetleaf plant response rating: 0
  Plant response rating, Velvetleaf: 0
velvetleaf; [5]
  Plant response rating, Velvetleaf: 0
velvetleaf; [2]
  Velvetleaf plant response rating: 0
velvetleaf; [6]
  Velvetleaf plant response rating: 0
velvetleaf; [3]
  Plant response rating, Velvetleaf: 0
wheat; [1]
  Wheat plant response rating: 0
  Plant response rating, Wheat: 0
wheat; [5]
  Plant response rating, Wheat: 0
wheat; [2]
  Wheat plant response rating: 0
wheat; [6]
  Wheat plant response rating: 0
wheat; [3]
  Plant response rating, Wheat: 0
Wild oat; [1]
  Wild oats plant response rating: 0
  Plant response rating, Wild oats: 0
Wild oat; [5]
  Plant response rating, Wild oats: 0
Wild oat; [2]
  Wild oats plant response rating: 0
Wild oat; [6]
  Wild oats plant response rating: 0
Wild oat; [3]
  Plant response rating, Wild oats: 3
Purple nutsedge; [1]
  Nutsedge plant response rating: 0
  Plant response rating, Nutsedge: 0
Purple nutsedge; [5]
  Plant response rating, Nutsedge: 0
Purple nutsedge; [2]
  Nutsedge plant response rating: 0
Purple nutsedge; [3]
  Plant response rating, Nutsedge: 0
rice; [7]
  Rice plant response rating: 0
rice; [8]
  Rice plant response rating (0 to 10 scale, 0 is no effect, 10 is complete control): 0
rice; [9]
  Rice plant response rating: 0
rice; [10]
  Rice plant response rating: 0
Smallflower flatsedge; [7]
  S. Flatsedge plant response rating: 0
Smallflower flatsedge; [8]
  S. Flatsedge plant response rating (0 to 10 scale, 0 is no effect, 10 is complete control): 0
Smallflower flatsedge; [9]
  S. Flatsedge plant response rating: 0
Smallflower flatsedge; [10]
  S. Flatsedge plant response rating: 0
Duck salad; [7]
  Ducksalad plant response rating: 0
Duck salad; [8]
  Ducksalad plant response rating (0 to 10 scale, 0 is no effect, 10 is complete control): 0
Duck salad; [9]
  Ducksalad plant response rating: 0
Duck salad; [10]
  Ducksalad plant response rating: 0
bamyardgrass; [7]
  Barnyardgrass plant response rating: 0
bamyardgrass; [8]
  Barnyardgrass plant response rating (0 to 10 scale, 0 is no effect, 10 is complete control): 0
bamyardgrass; [9]
  Barnyardgrass plant response rating: 0
bamyardgrass; [10]
  Barnyardgrass plant response rating: 0
